The test has as its target T1, CYP2C11 (Rattus norvegicus, UniProt P08683).
T1 sequence (P08683 1-500): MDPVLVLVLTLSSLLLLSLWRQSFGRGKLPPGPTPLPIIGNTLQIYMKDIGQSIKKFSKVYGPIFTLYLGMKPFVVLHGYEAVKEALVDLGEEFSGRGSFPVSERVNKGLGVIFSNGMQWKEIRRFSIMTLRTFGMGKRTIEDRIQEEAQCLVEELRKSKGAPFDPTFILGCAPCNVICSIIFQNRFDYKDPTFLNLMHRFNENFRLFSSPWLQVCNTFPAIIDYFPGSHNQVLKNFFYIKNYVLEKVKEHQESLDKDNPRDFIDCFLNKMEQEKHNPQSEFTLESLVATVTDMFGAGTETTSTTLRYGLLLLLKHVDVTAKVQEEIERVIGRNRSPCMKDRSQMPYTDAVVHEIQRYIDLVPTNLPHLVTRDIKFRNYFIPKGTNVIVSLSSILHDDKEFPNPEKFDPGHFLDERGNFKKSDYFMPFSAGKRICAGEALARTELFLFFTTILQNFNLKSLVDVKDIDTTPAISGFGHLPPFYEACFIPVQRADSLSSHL
Description: testosterone […]α-hydroxylation in pooled male Sprague-Dawley rat liver microsomes, HPLC; Lineweaver-Burk. Type of test: biochemical. (In general: Microsomes from liver hold many membrane-bound enzymes, among them those of drug oxidation.)

What is called Ki is a dissociation constant, usually derived from enzyme kinetics or from competition with a known ligand. High values mean weaker binding, low ones tighter binding.

`O=C(O)c1ccccc1O` [salicylic acid] came in with a Ki of 84.6 ± 2.67 µM.

The values above are taken from article PMC6930622, “Validation of an HPLC Method for the Simultaneous Quantification of Metabolic Reaction Products Catalysed by CYP2C11 Enzymes in Rat Liver Microsomes: In Vitro Inhibitory Effect of Salicylic Acid on CYP2C11 Enzyme” (Molecules, 2019).
